Assay results from paper PMC9821843, “Powerful Potential of Polyfluoroalkyl-Containing 4-Arylhydrazinylidenepyrazol-3-ones for Pharmaceuticals” (Molecules, 2022).
Like-named read-outs stand apart in the source and are kept apart here. Values belong to the molecule of their own block, whether it stands above or below them.

Columns and labels:
[1] = system: Sprague-Dawley (SD) rats; assay: Hot plate test (analgesic activity); format: in vivo; conditions: Rattus norvegicus, hot plate test, rats, ip, dose 10 mg/kg, eight independent experiments
Procedure, shortened: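 Test compounds were given i.p. as suspensions in 1% starch mucilage to SD rats (3 male, 3 female per group), vehicle as negative control. At 1 and 2 h post-dose, latency to nociceptive response (jumping, hind paw licking/shaking) on a 50 °C plate was recorded, 30 s cutoff.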

[2] = system: Sprague-Dawley rats; assay: Carrageenan-induced paw edema model (anti-inflammatory activity); format: in vivo; conditions: ip, dose 10 mg/kg, four independent experiments
Description: Anti-inflammatory activity was studied in Sprague-Dawley rats (3 male and 3 female animals per group) by using the common carrageenan-induced paw edema model. The investigated compounds in 1% starch mucilage were intraperitoneally administered at the corresponding dose to a treated group of rodents 30 min before the injection of 0.1 mL of freshly prepared 1% carrageenan (λ-carrageenan, type IV; Sigma Aldrich, an affiliate of Merck KGaA, Darmstadt, Germany) solution in the right hind paw plantar surface. The negative control group was treated with 1% starch mucilage solution only. Diclofenac sodium (10 mg/kg in 1% starch mucilage solution) was used as a reference drug. Paw volumes were measured oncometrically with water plethysmometer (TSE Volume Meter, Bad Homburg, Germany) before carrageenan administration (“zero time”) and at 1st, 3rd, 5th and 24th h after its injection. An anti-inflammatory activity of the sample at a certain time point was calculated in two steps. First, the percentage of an edema increment (i.e., relative volume change for the inflamed paw vs. “zero time” value) both in the negative control group (Pc) and in the treated group (Ptr) were calculated for this time point for each animal. The difference between treated and control group was considered significant at p < 0.05. Then, for such cases, swelling inhibition was calculated according to the formula: 100% (Pc − Ptr)/Pc and considered as a measure of anti-inflammatory activity of the sample.

[3] = biological target: T1, ratTRPV1 (rTRPV1) (Rattus norvegicus, UniProt O35433); assay: TRPV1 calcium imaging in CHO cells (acid / 2APB activation); format: cell-based; conditions: 50 μM
T1 construct: expressed in transfected cells
T1 sequence (O35433 whole entry): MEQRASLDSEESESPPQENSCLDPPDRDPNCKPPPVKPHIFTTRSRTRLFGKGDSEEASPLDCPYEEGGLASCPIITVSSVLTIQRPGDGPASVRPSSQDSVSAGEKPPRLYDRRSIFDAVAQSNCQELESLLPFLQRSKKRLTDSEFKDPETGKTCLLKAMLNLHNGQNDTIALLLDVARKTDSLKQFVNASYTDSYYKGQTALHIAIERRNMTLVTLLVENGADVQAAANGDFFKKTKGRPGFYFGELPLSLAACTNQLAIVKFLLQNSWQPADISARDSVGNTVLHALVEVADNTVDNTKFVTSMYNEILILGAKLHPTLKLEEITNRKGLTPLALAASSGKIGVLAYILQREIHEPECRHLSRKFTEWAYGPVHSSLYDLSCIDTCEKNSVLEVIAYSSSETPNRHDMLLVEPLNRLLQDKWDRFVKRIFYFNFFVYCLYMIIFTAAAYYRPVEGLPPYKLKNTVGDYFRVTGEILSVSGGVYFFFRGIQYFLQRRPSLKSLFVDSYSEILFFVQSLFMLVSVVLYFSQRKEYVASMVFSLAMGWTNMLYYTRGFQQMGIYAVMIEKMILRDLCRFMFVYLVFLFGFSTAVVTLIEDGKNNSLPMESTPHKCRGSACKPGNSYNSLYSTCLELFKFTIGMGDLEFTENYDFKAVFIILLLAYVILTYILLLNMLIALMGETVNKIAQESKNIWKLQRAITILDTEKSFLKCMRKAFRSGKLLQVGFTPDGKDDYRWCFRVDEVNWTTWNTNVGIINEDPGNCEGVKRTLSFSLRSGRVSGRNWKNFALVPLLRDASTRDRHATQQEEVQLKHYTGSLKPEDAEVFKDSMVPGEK
Description: Testing for receptors ratTRPA1 (rTRPA1) and ratTRPV1 (rTRPV1), stably expressed in CHO cells, was carried out using the calcium imaging method as described in [123, 124]. Fluorescence was performed using NOVOstar (BMG LABTECH, Ortenberg, Germany). The tested substances in 26% DMSO solution or 26% DMSO solution alone (negative control) (5 μL) were added to the cells loaded with the cytoplasmic calcium indicator Fluo-4AM using Fluo-4 Direct™ Calcium Assay Kit (Thermo Fisher Scientific Inc., Waltham, MA, USA) (60 μL) and incubated 5–10 min. Final DMSO concentration was 2%. Changes in cell fluorescence (λex = 485 nm, λem = 520 nm) were monitored at 25 °C before and after the addition of relevant agonist. The AITC final concentration 160 μM was used for rTRPA1 activation. For rTRPV1 activation we used (1) acid-salt buffer pH4.01 (diluted 2 times Buffer solution pH 4.01 (Mettler Toledo, Greifensee, Switzerland) containing 150 mM NaCl), (2) 2APB in 10 mM HEPES/HBSS, pH 7.4—final concentration 160 μM, or (3) 2APB in acid-salt buffer pH 4.01—final concentration 80 μM. Nonspecificity was tested on wild type CHO.
To achieve the required level of acidification, the cell medium with fluorescent dye (pH 7.4) was pre-titrated to determine the required volume of acid-salt buffer until pH 6.2 was reached. The pH level was also monitored after the test as an average of 10–12 wells. […]

- melting point: 165 to 166 °C
Compound: Cc1ccc(N/N=C2\C(=O)N(c3ccc(C)cc3)N=C2C(F)(F)C(F)(F)F)cc1

Compound: O=C(O)Cc1ccccc1Nc1c(Cl)cccc1Cl [Diclofenac, reference compound]
- change in vivo at 10 mg/kg ([1]; 1 h, read-out: Latent Period Prolongation, % 1 h): 63.5 ± 18.2%
- change in vivo at 10 mg/kg ([1]; 2 h, read-out: Latent Period Prolongation, % 2 h): 70 ± 20.8%
- Inhibition of Paw Edema Development Comparing to Control, after 1 h [2]: 35.6 ± 5.8 ^1%
- Inhibition of Paw Edema Development Comparing to Control, after 3 h [2]: 54.3 ± 12.1 ^1%
- Inhibition of Paw Edema Development Comparing to Control, after 5 h [2]: 46.2 ± 13.2 ^1%

Compound: Oc1cc2c(cc1O)CN(C(=S)NCCc1ccc(Cl)cc1)CCC2 [capsazepine]
- inhibition of the increase in intracellular Ca2+ (TRPV1 activation by acidic solution or 160 μM 2APB) [3]: effectively inhibited
